According to patent publication US20250059162A1, “MULTI-PROTEIN DEGRADATION AGENT HAVING IMIDE SKELETON” (SUZHOU KINTOR PHARMACEUTICALS, INC., priority 2021, published 2025):

Tests used:
Assay type in all cases: cell-based
[1] = system: HL60 cells; assay: Anti-proliferation on HL60 cells (CellTiter-Glo, 3 days); conditions: Homo sapiens, HL-60, 72 h, 3 days incubation, CTG luminescence, IC50 by XLfit, read-out: HL60 cells Proliferation inhibitory activity
Procedure, shortened: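 Log-phase cells were plated at 20000 cells/well and treated with compound dilutions in RPMI-1640 for 3 days, with 0.1% DMSO controls. Proliferation was read by CellTiter-Glo luminescence. IC50 was fitted from the inhibition rates.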

[2] = target: T1, GSPT1 protein (Homo sapiens, UniProt P15170); assay: GSPT1 protein degradation in HL60 cells (Western blot); conditions: for Degradation of GSPT1 protein in HL60 cells (FIG. 1, in words): FIG. 1, concentration not stated; for remaining GSPT1 protein at 0.01 µM: HL-60, compound at 10 nM, 24 h, gray value relative to Ctrl (DMSO), read-out: Remaining amount of GSPT1 protein (@10 nM/Ctrl)
T1 construct: degradation of myc and GSPT1 proteins in HL60 cells; endogenous in cells; host or cells: HL60
T1 sequence (P15170 whole entry): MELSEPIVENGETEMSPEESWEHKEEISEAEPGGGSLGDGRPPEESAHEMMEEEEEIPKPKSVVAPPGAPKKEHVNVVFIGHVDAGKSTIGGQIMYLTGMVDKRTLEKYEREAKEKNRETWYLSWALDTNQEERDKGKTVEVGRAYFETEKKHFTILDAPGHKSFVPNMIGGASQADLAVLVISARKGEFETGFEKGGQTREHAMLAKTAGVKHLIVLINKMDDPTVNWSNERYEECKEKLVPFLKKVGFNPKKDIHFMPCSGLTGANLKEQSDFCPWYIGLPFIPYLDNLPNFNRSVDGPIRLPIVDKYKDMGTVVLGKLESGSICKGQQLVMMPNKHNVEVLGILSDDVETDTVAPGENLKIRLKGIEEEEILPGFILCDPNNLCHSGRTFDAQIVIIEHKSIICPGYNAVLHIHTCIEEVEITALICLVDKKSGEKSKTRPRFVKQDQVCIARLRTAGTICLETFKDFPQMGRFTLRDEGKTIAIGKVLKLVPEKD
Procedure: (§1) HL60 cells in the exponential growth phase were digested and plated into a 6-well plate at 1×10^6 cells per well. The cell culture medium was RPMI-1640 (meilunbio, MA0215). After a day of adherent growth of the cells, the compound of the present invention was added as a test drug for culture, and proteins were extracted 24 h later (Ctrl meant adding only DMSO at the same volume).
(§2) In the 6-well plate, the culture medium RPMI-1640 (meilunbio, MA0215) was removed, and the cells were washed once with PBS, digested with trypsin, and centrifuged and collected separately into 1.5 mL centrifuge tubes. 100 μL of RIPA lysis buffer (containing 100 μM PMSF) was added to each tube, mixed thoroughly, allowed to stand on ice for 30 min and then centrifuged at 12000 rpm at 4° C. using a centrifuge for 20 min. The supernatant was used for Western blotting experiments. The sample can be stored at −80° C.
(§3) By using the BCA protein concentration determination kit (from Thermo Fisher, Cat. No. 23225), the BSA standard determination solution and the samples to be tested (the samples to be tested can be diluted and then tested) were prepared according to the table A below. Samples were added to the 96-well plate. Each well was supplemented with PBS to 20 μL, and then 200 μL of BCA working solution (prepared according to the kit) was added respectively and mixed evenly. The plate was placed at 60° C. for 10 min, and then the absorbance at 562 nm was detected. After the reading was recorded, a standard curve was plotted using concentration gradients of the standards, and the absorbance of the samples was substituted to calculate the protein concentration of the samples.
(§4) • 2.1 Protein denaturation: RIPA protein buffer (purchased from Solarbio, Cat. No. R0010) and 5× Loading Buffer (SDS, glycerin, bromophenol blue, TRIS) (purchased from Solarbio, Cat. No. P1040) were added, and the protein samples were denatured at 100° C. for 5 min. • 2.2 Sample loading and electrophoresis: 10% precast gel and the corresponding electrophoresis buffer were used. The same mass of protein sample and protein ladder (purchased from thermo, Cat. No. 26617) were loaded into each well, and electrophoresis at 200 V was performed for 30 min. • 2.3 […]: The gel was excised to remove the excess part. Transferring to PVDF membrane was performed by the wet transfer method (before use, it was necessary to activate the PVDF membrane with methanol for 1 min) at 300 mA for 2 h, during which a lot of heat was generated, and thus cooling with an ice box was required. • 2.4 Blocking: After the transferring, the PVDF membrane was placed in 5% skim milk and blocked with shaking at room temperature for 1 h. • 2.5 Incubating with primary antibody: The PVDF membrane was cut according to the molecular weight indicated on the marker and placed in c-myc (purchased from abcam, Cat. No. ab32072), or GSPT1 (purchased from abcam, Cat. No. ab234433), or CK1α (purchased from abcam, Cat. No. ab206652), or IKZF2 (purchased from proteintech, Cat. No. 13554-1-AP), and GAPDH (purchased from CST, Cat. No. #97166) primary antibodies. The antibodies were diluted with TBST buffer (a solution prepared from TRIS, KCL and NaCl and adjusted to pH 7.4 with hydrochloric acid, and Tween 20 was added) at a ratio of 1:1000, and blocked overnight on a shaker at 4° C. • 2.6 Incubating with secondary antibody: The PVDF membrane incubated with the primary antibody was washed with TBST for 3 times, each time for 10 min. After washing, the membrane was placed in the secondary antibody of the corresponding species, and incubated at room temperature in a shaker for 2 h. • 2.7 Washing membrane and exposure: After incubated with the secondary antibodies, the membrane was washed 3 times with TBST on a shaker, 10 minutes each time. […]

[3] = target: T2, CK1α protein (Homo sapiens, UniProt P48729); assay: CK1α protein degradation (Western blot); conditions: compound at 10 nM, 24 h, gray value relative to Ctrl (DMSO)
T2 construct: endogenous in cells; host or cells: HL60
T2 sequence (P48729 whole entry): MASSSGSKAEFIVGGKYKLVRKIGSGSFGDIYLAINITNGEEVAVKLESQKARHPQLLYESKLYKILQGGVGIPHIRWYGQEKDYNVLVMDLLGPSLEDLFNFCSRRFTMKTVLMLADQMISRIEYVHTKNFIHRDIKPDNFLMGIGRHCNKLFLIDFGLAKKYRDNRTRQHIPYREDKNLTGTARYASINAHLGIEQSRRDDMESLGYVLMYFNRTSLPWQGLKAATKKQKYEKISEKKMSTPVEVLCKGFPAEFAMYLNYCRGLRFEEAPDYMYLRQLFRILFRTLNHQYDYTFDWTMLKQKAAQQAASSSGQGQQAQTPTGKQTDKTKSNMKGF
Procedure: as §1, §2, §3
(§5) • 2.1 Protein denaturation: RIPA protein buffer (purchased from Solarbio, Cat. No. R0010) and 5× Loading Buffer (SDS, glycerin, bromophenol blue, TRIS) (purchased from Solarbio, Cat. No. P1040) were added, and the protein samples were denatured at 100° C. for 5 min. • 2.2 Sample loading and electrophoresis: 10% precast gel and the corresponding electrophoresis buffer were used. […]

[4] = target: T3, c-Myc protein (Homo sapiens, UniProt P01106); assay: c-Myc protein degradation in HL60 cells (Western blot); conditions: for remaining activity at 0.01 µM: HL-60, compound at 10 nM, 24 h, gray value relative to Ctrl (DMSO), read-out: Remaining amount of c-Myc protein (@10 nM/Ctrl)
T3 construct: degradation of myc and GSPT1 proteins in HL60 cells; endogenous in cells; host or cells: HL60
T3 sequence (P01106 whole entry): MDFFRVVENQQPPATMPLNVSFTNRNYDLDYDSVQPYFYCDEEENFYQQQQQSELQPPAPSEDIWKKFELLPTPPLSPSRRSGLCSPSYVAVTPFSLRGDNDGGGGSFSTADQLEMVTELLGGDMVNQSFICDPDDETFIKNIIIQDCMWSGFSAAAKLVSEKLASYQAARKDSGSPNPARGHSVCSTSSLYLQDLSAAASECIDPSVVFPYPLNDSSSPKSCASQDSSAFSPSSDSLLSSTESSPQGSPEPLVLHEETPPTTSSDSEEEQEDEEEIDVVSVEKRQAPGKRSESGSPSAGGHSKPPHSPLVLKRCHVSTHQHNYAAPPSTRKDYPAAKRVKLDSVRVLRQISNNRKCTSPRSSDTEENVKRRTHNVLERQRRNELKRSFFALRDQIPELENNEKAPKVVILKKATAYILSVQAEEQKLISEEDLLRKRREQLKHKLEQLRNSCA
Procedure: as §1, §2, §3, §4

[5] = target: T4, IKZF2 protein (Homo sapiens, UniProt Q9UKS7); assay: IKZF2 protein degradation (Western blot); conditions: compound at 10 nM, 24 h, gray value relative to Ctrl (DMSO)
T4 construct: endogenous in cells; host or cells: HL60
T4 sequence (Q9UKS7 whole entry): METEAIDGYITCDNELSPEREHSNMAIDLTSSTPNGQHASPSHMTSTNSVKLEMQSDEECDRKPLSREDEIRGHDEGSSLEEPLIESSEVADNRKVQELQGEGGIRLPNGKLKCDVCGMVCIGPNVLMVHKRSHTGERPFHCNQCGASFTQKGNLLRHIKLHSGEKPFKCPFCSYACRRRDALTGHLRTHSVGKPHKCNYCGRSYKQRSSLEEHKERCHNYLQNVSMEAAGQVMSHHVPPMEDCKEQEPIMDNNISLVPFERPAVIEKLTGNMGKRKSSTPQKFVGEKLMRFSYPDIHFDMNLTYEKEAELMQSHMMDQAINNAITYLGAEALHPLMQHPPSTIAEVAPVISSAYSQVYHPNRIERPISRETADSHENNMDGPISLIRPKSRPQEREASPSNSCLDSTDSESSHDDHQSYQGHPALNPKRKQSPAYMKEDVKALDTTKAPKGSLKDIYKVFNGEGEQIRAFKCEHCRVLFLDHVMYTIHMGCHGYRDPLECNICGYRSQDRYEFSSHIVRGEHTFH
Procedure: as §1, §2, §3, §5

IC50 [1] [nM]	Degradation of GSPT1 protein in HL60 cells (FIG. 1, in words) [2]	remaining GSPT1 protein at 0.01 µM [2] [%]	Remaining amount of CK1α protein (@10 nM/Ctrl) [3] [%]	remaining activity at 0.01 µM [4] [%]	Remaining amount of IKZF2 protein (@10 nM/Ctrl) [5] [%]	Degradation of c-Myc protein in HL60 cells at 10 nM (FIG. 1, in words) [4]	Degradation of GSPT1 protein in HL60 cells at 10 nM (FIG. 1, in words) ([2]; 10 nM)	SMILES
2	significantly degrade GSPT1 protein	16	27	17	45	–	–	O=C1CCC(N2Cc3cc(CNCC4CCN(c5ncc(-c6cccc7ccccc67)cn5)CC4)ccc3C2=O)C(=O)N1 (centres unmarked) [Compound A62]
–	–	–	78	–	85	no ability to degrade c-Myc protein	–	O=C1CCC(N2Cc3cc(CNC(=O)C(F)(F)c4ccc(Cl)cc4)ccc3C2=O)C(=O)N1 (centres unmarked) [CC-90009, reference compound]
< 0.2	significantly degrade GSPT1 protein	3	5	0	17	completely degrade both GSPT1 and c-Myc	completely degrade both GSPT1 and c-Myc	O=C1CCC(N2Cc3cc(CNCC4CCN(c5ncc(-c6cccc(Cl)c6)cc5C(F)(F)F)CC4)ccc3C2=O)C(=O)N1 (centres unmarked) [Compound A80]
